From ChEMBL document CHEMBL5712093, “The histone methyltransferase SMYD2 is a novel therapeutic target for the induction of apoptosis in ovarian clear cell carcinoma cells” (Oncol Lett, 2020) come the findings set out here.

pIC50: −log10 of the molar value.

Common to all, as to type: functional, cell-based
A short description of test [1]: Anti-proliferative activity against human OVMANA cells assessed as cell viability incubated for 24 hrs by CCK-8 assay. On the technique in general: Formazan colour is commonly taken as a measure of viable cells.
Test [2] in a line: Anti-proliferative activity against human OVTOKO cells assessed as cell viability incubated for 24 hrs by CCK-8 assay.
The test system of the next test is TOV21G. Description: Anti-proliferative activity against human TOV-21G cells assessed as cell viability incubated for 24 hrs by CCK-8 assay.

What is called pIC50 is the IC50 on a negative log10 scale, so that one unit is a factor of ten. Turning to `Cc1cn(CCN2CCN(c3ccccc3-c3cc(C#N)cc(C(=O)NCCCN4CCCC4)c3)CC2)c2ccccc12`, the pIC50 in test [1] is 5.93; in test [2] it was 6.02; in the test on TOV21G it was 5.92.
